Test results from US20120263754A1, “Methods for Enhancing Immunogen Specific Immune Responses by Vectored Vaccines” (priority 2011, published 2012).

Test system: CD8 T cell response to the epitope AH1A5
Assay: Adjuvant mixed with DC-NILV encoding AH1A5 and administered together subcutaneously; ICS/FACS
Format: in vivo, BALB/c mice
Conditions: adjuvant mixed with DC-NILV AH1A5 1 μg p24, s.c.; 4 or 20 μg GLA, 4 μg LPS; spleen cells day 10
Protocol: FIG. 2 illustrates the effect of two adjuvants, GLA and lipopolysaccharide (LPS), on the immune response to the CD8 T cell epitope AH1A5. The lentiviral vector encoding AH1A5 (SinVarl FUW AH1A5 (1 μg p24)) was mixed with PBS (control group), 4 μg GLA, 20 μg GLA, or 4 μg LPS and then administered subcutaneously (s.c.) to groups of BALB/C mice. After 10 days, spleen cells were isolated from animals in each group, and the CD8 T cell response was evaluated by determining the level of TNF-α and IFN-γ by intracellular cytokine staining (ICS) followed by fluorescence activated cell sorting (FACS). The values shown are the mean percentage ±SEM of CD8 T cells that are positive for IFN-γ. Data are also shown from spleen cells obtained from mice that were not injected with the lentiviral vector (no LV).
The effect of two adjuvants, GLA and lipopolysaccharide (LPS), on the immune response to the CD8 T cell epitope AH1A5 was determined. DC-NILV encoding AH1A5 (1 μg p24) was mixed with PBS (control group), 4 μg GLA, 20 μg GLA, or 4 μg lipopolysaccaride (LPS) and then administered subcutaneously (s.c.) to groups of BALB/c mice. After 10 days, spleen cells were isolated from animals in each group, and the CD8 T cell response was evaluated by determining the level of TNF-α and IFN-γ by intracellular cytokine staining (ICS) followed by fluorescence activated cell sorting (FACS). […]

How did the “effect of coadministered adjuvant on vaccine-induced immune responses (CD8 T cells, TNF-α and IFN-γ)” value turn out when lipopolysaccharide [LPS] was run?
The value was “inhibitory effect”.
